# pIC50: −log10 of the molar value. Where two headings read alike, the source gives them in different places.
# Assays:
# [1] = biological target: T1, CYP17 (human testicular microsome) (Homo sapiens, UniProt P05093); test: CYP17 enzymatic assay (% inhibition at 10 nM), version 1 (Biological Example 5); assay type: biochemical
# T1 construct: using microsomal fraction from human testis (Celsis Cat #S00110) as the enzyme source; tissue Celsis S00110; host or cells: human testis microsomal fraction
# T1 sequence (P05093 1-508): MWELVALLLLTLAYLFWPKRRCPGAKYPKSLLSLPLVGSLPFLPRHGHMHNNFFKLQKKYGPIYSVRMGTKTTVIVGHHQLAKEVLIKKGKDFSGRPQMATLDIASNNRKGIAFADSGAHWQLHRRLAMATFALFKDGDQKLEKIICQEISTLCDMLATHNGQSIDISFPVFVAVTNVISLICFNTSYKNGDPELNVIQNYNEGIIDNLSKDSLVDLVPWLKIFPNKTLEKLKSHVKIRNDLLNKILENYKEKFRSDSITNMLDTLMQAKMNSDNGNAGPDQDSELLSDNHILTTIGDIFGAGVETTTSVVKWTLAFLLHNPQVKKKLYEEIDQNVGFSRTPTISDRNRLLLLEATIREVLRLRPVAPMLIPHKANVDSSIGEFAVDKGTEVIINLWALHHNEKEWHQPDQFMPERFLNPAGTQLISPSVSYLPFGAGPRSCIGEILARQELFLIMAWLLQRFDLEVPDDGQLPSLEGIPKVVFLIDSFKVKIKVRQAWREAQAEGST
# [2] = system: rat Cyp11B enzyme (rat adrenal mitochondria); test: CYP11B enzymatic assay (% inhibition at 100 nM) (Biological Example 9); assay type: biochemical; conditions: for CYP11B enzymatic assay % inhibition at 100 nM (Biological Example No. 9) / Biological Example No. 9: CYP11B enzymatic assay % inhibition at 100 nM: compound at 100 nM
# Method: Adrenals excised from Sprague Dawley rats were homogenized, and mitochondria fraction were prepared by a series of centrifugation as described in Shuji Ohno, et al. J. of Steroid Biochemistry & Molecular Biology 2002, 80, 355-363. Prepared mitochondria protein was washed and resuspended in Buffer B (0.21 M mannitol, 70 mM sucrose, 5 mM MgCl2, 0.5 mM CaCl2, 20 mM Tris-HCl (pH 7.4) and 1 mM DTT, […]). The protein concentration was determined by BCA assay and stored as 10 μL aliquots at −80° C.
# The rat Cyp11B enzyme assay was performed in 96-well plates. Typical assays were carried out in total 50 μL volume that included test compounds at 100 nM concentration, 1× Buffer B, 0.5 mM NADPH, 0.1 μM 11-deoxycortisol, and 2 μL of prepared rat adrenal mitochondria (added last). Reaction without test compound served as positive control and reaction without NADPH served as negative control. Reactions were allowed to incubate at 37° C. for 60 min with gentle shaking. The reaction was stopped by directly applying the enzymatic reaction mixture (1:5 diluted in ELISA assay buffer) to ELISA plate for evaluation of cortisol concentration according to manufacturer's protocol (Assay Design).
# The mean absorbance value for each sample was used to determine the corresponding concentration from the standard curve. Amount of cortisol in the negative control (reaction that dis not include NADPH) was subtracted from total cortisol. Percent inhibition (inhibition %) of the compound was calculated using normalized cortisol concentration based on following formula: 100−([Cortisol] of compound/[Cortisol] of positive control *100).
# [3] = biological target: T1, CYP17 (human testicular microsome); test: CYP17 enzymatic assay (IC50) (Biological Example 4); assay type: biochemical; conditions: human testicular microsome
# [4] = Human liver microsome stability assay (Biological Example 8b); conditions: liver microsomes, pH 7.4
# [5] = biological target: T1, CYP17 (human testicular microsome); test: CYP17 enzymatic assay (% inhibition at 1 nM) (Biological Example 12); assay type: biochemical; conditions: compound at 1 nM
# [6] = biological target: T2, Cyp21 enzyme (Human HEK 293-Cyp21 stable transfected cells) (Homo sapiens, UniProt P08686); test: CYP21-HEK293 enzymatic assay (IC50) (Biological Example 11); assay type: cell-based; conditions: HEK 293-Cyp21 cells; read-out: CYP21-HEK293 enzymatic assay IC50 (Biological Example No. 11)
# T2 construct: expressed in transfected cells
# T2 sequence (P08686 1-495): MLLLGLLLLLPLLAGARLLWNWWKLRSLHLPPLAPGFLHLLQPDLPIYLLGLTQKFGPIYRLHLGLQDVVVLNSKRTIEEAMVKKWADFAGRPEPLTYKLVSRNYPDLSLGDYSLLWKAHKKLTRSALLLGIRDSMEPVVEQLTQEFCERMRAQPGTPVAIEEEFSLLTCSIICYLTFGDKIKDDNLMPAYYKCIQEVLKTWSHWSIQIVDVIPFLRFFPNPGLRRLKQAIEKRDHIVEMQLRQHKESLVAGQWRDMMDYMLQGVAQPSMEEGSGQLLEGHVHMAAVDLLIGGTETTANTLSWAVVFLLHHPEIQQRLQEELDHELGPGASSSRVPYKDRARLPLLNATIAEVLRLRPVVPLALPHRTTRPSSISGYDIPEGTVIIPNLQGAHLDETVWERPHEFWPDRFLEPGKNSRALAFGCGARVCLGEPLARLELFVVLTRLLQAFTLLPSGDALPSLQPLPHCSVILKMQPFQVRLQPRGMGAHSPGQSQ
# [7] = read-out: CYP17 enzymatic assay IC50 (Biological Example No. 4)
# [8] = compound at 10 nM, read-out: CYP17 enzymatic assay % inhibition at 10 nM (Biological Example No. 5)
# [9] = read-out: CYP17 enzymatic assay % inhibition at 1 nM (Biological Example No. 12)
Structure (SMILES),"pIC50 [3, 7]","inhibition at 0.01 µM [1, 8]","inhibition at 0.001 µM [5, 9]",CYP11B enzymatic assay % inhibition at 100 nM (Biological Example No. 9) [2],further results
"CC(=O)O[C@H]1CC[C@@]2(C)C(=CC[C@H]3C4=CC=C(c5cccnc5)[C@@]4(C)CC[C@@H]32)C1 [Compound 78, (3S,10R,13S)-10,13-dimethyl-17-(pyridin-3-yl)-2,3,4,7,8,9,10,11,12,13-decahydro-1H-cyclopenta[a]phenanthren-3-yl acetate]",,,,,"inhibition at 0.01 µM ([1]; 10 nM compound, DHEA by ELISA, read-out: Biological Example No. 5: CYP17 percent inhibition at 10 nM (version 1)): 1 to 50%; Biological Example No. 9: CYP11B percent inhibition at 100 nM ([2]; 100 nM compound, cortisol by ELISA): U (U means the compound had a percent inhibition of greater than or equal to 32%)"
"CN1C(=O)CCC[C@@]2(C)C1=CCC1C2CC[C@]2(C)C(c3cccnc3)=CCC12 (stereo partly drawn) [Compound 180, (5aR,7aS)-1,5a,7a-trimethyl-8-(pyridin-3-yl)-3,4,5,5a,5b,6,7,7a,10,10a,10b,11-dodecahydrocyclopenta[5,6]naphtho[2,1-b]azepin-2(1H)-one]",> 7.96,> 80%,,U (U means the compound had a percent inhibition of greater than or equal to 32%),half-life at 1 μM [4]: 1 to 50 min
"COc1cncc(C2=CCC3C4CC=C5N(C)C(=O)CCC[C@]5(C)C4CC[C@]23C)c1 (stereo partly drawn) [Compound 181, (5aR,7aS)-8-(5-methoxypyridin-3-yl)-1,5a,7a-trimethyl-3,4,5,5a,5b,6,7,7a,10,10a,10b,11-dodecahydrocyclopenta[5,6]naphtho[2,1-b]azepin-2(1H)-one]",,> 80%,,U (U means the compound had a percent inhibition of greater than or equal to 32%),half-life at 1 μM [4]: 1 to 50 min
"Cc1cncc(C2=CCC3C4CC=C5N(C)C(=O)CCC[C@]5(C)C4CC[C@]23C)c1 (stereo partly drawn) [Compound 182, (5aR,7aS)-1,5a,7a-trimethyl-8-(5-methylpyridin-3-yl)-3,4,5,5a,5b,6,7,7a,10,10a,10b,11-dodecahydrocyclopenta[5,6]naphtho[2,1-b]azepin-2(1H)-one]",,50 to 80%,,U (U means the compound had a percent inhibition of greater than or equal to 32%),
"CN1C(=O)CC[C@@]2(C)C1=CC[C@@H]1[C@@H]2CC[C@]2(C)C(n3ccnc3)=CC[C@@H]12 [Compound 183, (4aR,6aS)-7-(1H-imidazol-1-yl)-1,4a,6a-trimethyl-4,4a,4b,5,6,6a,9,9a,9b,10-decahydro-1H-indeno[5,4-f]quinolin-2(3H)-one]",,50 to 80%,,U (U means the compound had a percent inhibition of greater than or equal to 32%),
"CN1C(=O)C[C@@]2(C)C1=CCC1C2CC[C@]2(C)C(c3cccnc3)=CCC12 (stereo partly drawn) [Compound 185, (3aR,5aS)-1,3a,5a-trimethyl-6-(pyridin-3-yl)-3,3a,3b,4,5,5a,8,8a,8b,9-decahydroindeno[5,4-e]indol-2(1H)-one]",> 7.96,,> 50%,U (U means the compound had a percent inhibition of greater than or equal to 32%),
"C[C@]12CCCN(S(C)(=O)=O)CC1CC[C@@H]1[C@@H]2CC[C@]2(C)C(n3ccnc3)=CC[C@@H]12 (stereo partly drawn) [Compound 437, (5aR,7aS)-8-(1H-imidazol-1-yl)-5a,7a-dimethyl-2-(methylsulfonyl)-1,2,3,4,5,5a,5b,6,7,7a,10,10a,10b,11,12,12a-hexadecahydrocyclopenta[5,6]naphtho[2,1-c]azepine]",,,,,pIC50 ([3]; read-out: Biological Example No. 4: CYP17 enzymatic assay IC50): < 7.60; Biological Example No. 9: CYP11B enzymatic assay % inhibition at 100 nM [2]: U (U means the compound had a percent inhibition of greater than or equal to 32%)
"COC(=O)c1cncn1C1=CCC2C3CC=C4C[C@@H](O)CC[C@]4(C)C3CC[C@]12C (stereo partly drawn) [Compound 476, methyl 1-((3S,10R,13S)-3-hydroxy-10,13-dimethyl-2,3,4,7,8,9,10,11,12,13,14,15-dodecahydro-1H-cyclopenta[a]phenanthren-17-yl)-1H-imidazole-5-carboxylate]",,,,,Biological Example No. 9: CYP11B enzymatic assay % inhibition at 100 nM [2]: na (“na” means the compound was not active under the conditions tested); inhibition at 0.001 µM ([5]; read-out: Biological Example No. 12: CYP17 enzymatic assay % inhibition at 1 nM): 10 to 50%

# More lines, main results first:
"pIC50 [3, 7]","inhibition at 0.01 µM [1, 8]","inhibition at 0.001 µM [5, 9]",Structure (SMILES),CYP11B enzymatic assay % inhibition at 100 nM (Biological Example No. 9) [2],further results
> 7.96,,> 50%,"COc1cncc(C2=CCC3C4CC=C5N(C)C(=O)C[C@]5(C)C4CC[C@]23C)c1 (stereo partly drawn) [Compound 187, (3aR,5aS)-6-(5-methoxypyridin-3-yl)-1,3a,5a-trimethyl-3,3a,3b,4,5,5a,8,8a,8b,9-decahydroindeno[5,4-e]indol-2(1H)-one]",T (T means the compound had a percent inhibition of less than 32% when tested at 100 nM),half-life at 1 μM [4]: 1 to 50 min
> 7.96,,> 50%,"CCCC(=O)N1CCC2CC[C@@H]3[C@H](CC[C@]4(C)C(n5ccnc5)=CC[C@@H]34)[C@@]2(C)CC1 (stereo partly drawn) [Compound 434, 1-((5aS,7aS)-8-(1H-imidazol-1-yl)-5a,7a-dimethyl-1,2,5,5a,5b,6,7,7a,10,10a,10b,11,12,12a-tetradecahydrocyclopenta[5,6]naphtho[1,2-d]azepin-3(4H)-yl)butan-1-one]",T (T means the compound had a percent inhibition of less than 32% when tested at 100 nM),pIC50 [6]: < 6.00
,,10 to 50%,"COC(=O)N1CCC[C@@]2(C)[C@@H](CC[C@@H]3[C@@H]2CC[C@]2(C)C(n4ccnc4)=CC[C@@H]32)C1 [Compound 442, (5aR,5bS,7aS,10aS,10bR,12aR)-methyl 8-(1H-imidazol-1-yl)-5a,7a-dimethyl-3,4,5,5a,5b,6,7,7a,10,10a,10b,11,12,12a-tetradecahydrocyclopenta[5,6]naphtho[2,1-c]azepine-2(1H)-carboxylate]",U (U means the compound had a percent inhibition of greater than or equal to 32%),pIC50 [6]: < 7.00
,,10 to 50%,"CC(=O)N1CCC[C@@]2(C)[C@@H](CC[C@@H]3[C@@H]2CC[C@]2(C)C(n4ccnc4)=CC[C@@H]32)C1 [Compound 443, 1-((5aR,5bS,7aS,10aS,10bR,12aR)-8-(1H-imidazol-1-yl)-5a,7a-dimethyl-3,4,5,5a,5b,6,7,7a,10,10a,10b,11,12,12a-tetradecahydrocyclopenta[5,6]naphtho[2,1-c]azepin-2(1H)-yl)ethanone]",U (U means the compound had a percent inhibition of greater than or equal to 32%),

# From US20130252930A1 (BIOMARIN PHARMACEUTICAL INC., priority 2010, published 2013)
